Measured values from patent US20080039422A1, “Vitamin B12-Containing Compositions and Methods of Use” (Transition Therapeutics Inc., priority 2004, published 2008).

Tests used:
[1] = Drug substance properties; type: physicochemical; settings: 10 mg/ml aqueous solution
Experimental: Cyanocobalamin (CN-Cbl) is a cobalt containing vitamin and is reported to be sparingly soluble in water in the order of 1:80 or ˜12.5 mg/ml (Merck Index 1996). […] The material appears as dark red crystals or as an amorphous or crystalline red powder. It has a melting point of 300° C. and a molecular weight of 1355.38. The pH of a 10 mg/ml aqueous solution is 5.02.

[2] = Stability of CN-Cbl solutions stored at room temperature (3 days, 2 weeks); type: physicochemical; settings: for Conc of CN-Cbl: After 2 weeks at Room Temperature; for concentration of CN-Cbl: After 3 days at Room Temperature
Experimental: To determine the stability of the various solutions, the clarified stocks were aliquoted into fresh tubes and stored at room temperature, protected from light, for up to two weeks. Prior to measuring the concentrations of CN-Cbl on subsequent occasions, the tubes were centrifuged for ten minutes at rcf 16,100. The concentration of CN-Cbl was measured as described above by spectrophotometry.
In the experiments described above, the concentration of CN-Cbl was measured within an hour or two after the components of the solutions were initially combined. To determine the stability of the preparations, the concentrations of CN-Cbl were measured in individual excipients after three days and the concentrations of CN-Cbl in combined excipients were measured after two weeks. Tables 3A-3B are tables showing the concentrations of CN-Cbl (mg/ml) in various solutions after three days incubation at room temperature. Solutions containing 0-60% propylene glycol (Table 3A) and solutions containing 0-40% ethanol (Table 3B) were challenged with 50, 75, 100, and 125 mg/ml CN-Cbl. Table 4 is a table showing the concentrations of CN-Cbl in excipients containing ethanol and propylene glycol after two weeks incubation at room temperature. The solutions were challenged with either 50 or 75 mg/ml CN-Cbl and the excipients contained ethanol (10, 15, or 20%) and propylene glycol (20, 30, or 40%). […] Regardless of the diminution in concentration over time, however, it was hypothesized that the initial concentrations of CN-Cbl could be restored with an additional application of energy (e.g., mixing, heating, or both mixing and heating; see below).

cyanocobalamin [CN-Cbl]
pH of aqueous solution [1]: 5.02 | Conc of CN-Cbl ([2]; challenge 50 mg/mL, ethanol 10%, PG 20% (v/v)): 26680 µg/mL | Conc of CN-Cbl ([2]; challenge 50 mg/mL, ethanol 10%, PG 30% (v/v)): 39460 µg/mL | Conc of CN-Cbl ([2]; challenge 50 mg/mL, ethanol 10%, PG 40% (v/v)): 50650 µg/mL | Conc of CN-Cbl ([2]; challenge 50 mg/mL, ethanol 15%, PG 20% (v/v)): 48720 µg/mL | Conc of CN-Cbl ([2]; challenge 50 mg/mL, ethanol 15%, PG 30% (v/v)): 49780 µg/mL | Conc of CN-Cbl ([2]; challenge 50 mg/mL, ethanol 15%, PG 40% (v/v)): 49390 µg/mL | Conc of CN-Cbl ([2]; challenge 50 mg/mL, ethanol 20%, PG 20% (v/v)): 47080 µg/mL | Conc of CN-Cbl ([2]; challenge 50 mg/mL, ethanol 20%, PG 30% (v/v)): 49780 µg/mL | Conc of CN-Cbl ([2]; challenge 50 mg/mL, ethanol 20%, PG 40% (v/v)): 49870 µg/mL | Conc of CN-Cbl ([2]; challenge 75 mg/mL, ethanol 10%, PG 20% (v/v)): 26910 µg/mL | Conc of CN-Cbl ([2]; challenge 75 mg/mL, ethanol 10%, PG 30% (v/v)): 35210 µg/mL | Conc of CN-Cbl ([2]; challenge 75 mg/mL, ethanol 10%, PG 40% (v/v)): 55660 µg/mL | Conc of CN-Cbl ([2]; challenge 75 mg/mL, ethanol 15%, PG 20% (v/v)): 33280 µg/mL | Conc of CN-Cbl ([2]; challenge 75 mg/mL, ethanol 15%, PG 30% (v/v)): 43310 µg/mL | Conc of CN-Cbl ([2]; challenge 75 mg/mL, ethanol 15%, PG 40% (v/v)): 74280 µg/mL | Conc of CN-Cbl ([2]; challenge 75 mg/mL, ethanol 20%, PG 20% (v/v)): 38390 µg/mL | Conc of CN-Cbl ([2]; challenge 75 mg/mL, ethanol 20%, PG 30% (v/v)): 59620 µg/mL | Conc of CN-Cbl ([2]; challenge 75 mg/mL, ethanol 20%, PG 40% (v/v)): 75820 µg/mL | concentration of CN-Cbl ([2]; challenge 50 mg/ml, PG 0% v/v): 13600 µg/mL | concentration of CN-Cbl ([2]; challenge 50 mg/ml, PG 10% v/v): 19500 µg/mL | concentration of CN-Cbl ([2]; challenge 50 mg/ml, PG 20% v/v): 25300 µg/mL | concentration of CN-Cbl ([2]; challenge 50 mg/ml, PG 30% v/v): 31000 µg/mL | concentration of CN-Cbl ([2]; challenge 50 mg/ml, PG 40% v/v): 50000 µg/mL | concentration of CN-Cbl ([2]; challenge 50 mg/ml, PG 50% v/v): 49900 µg/mL | concentration of CN-Cbl ([2]; challenge 50 mg/ml, PG 60% v/v): 51500 µg/mL | concentration of CN-Cbl ([2]; challenge 75 mg/ml, PG 0% v/v): 15000 µg/mL | concentration of CN-Cbl ([2]; challenge 75 mg/ml, PG 10% v/v): 20100 µg/mL | concentration of CN-Cbl ([2]; challenge 75 mg/ml, PG 20% v/v): 25800 µg/mL | concentration of CN-Cbl ([2]; challenge 75 mg/ml, PG 30% v/v): 30500 µg/mL | concentration of CN-Cbl ([2]; challenge 75 mg/ml, PG 40% v/v): 40500 µg/mL | concentration of CN-Cbl ([2]; challenge 75 mg/ml, PG 50% v/v): 67000 µg/mL | concentration of CN-Cbl ([2]; challenge 75 mg/ml, PG 60% v/v): 75800 µg/mL | concentration of CN-Cbl ([2]; challenge 100 mg/ml, PG 0% v/v): 14900 µg/mL | concentration of CN-Cbl ([2]; challenge 100 mg/ml, PG 10% v/v): 19500 µg/mL | concentration of CN-Cbl ([2]; challenge 100 mg/ml, PG 20% v/v): 25000 µg/mL | concentration of CN-Cbl ([2]; challenge 100 mg/ml, PG 30% v/v): 28800 µg/mL | concentration of CN-Cbl ([2]; challenge 100 mg/ml, PG 40% v/v): 37600 µg/mL | concentration of CN-Cbl ([2]; challenge 100 mg/ml, PG 50% v/v): 55900 µg/mL | concentration of CN-Cbl ([2]; challenge 100 mg/ml, PG 60% v/v): 97200 µg/mL | concentration of CN-Cbl ([2]; challenge 125 mg/ml, PG 0% v/v): 14500 µg/mL | concentration of CN-Cbl ([2]; challenge 125 mg/ml, PG 10% v/v): 20400 µg/mL | concentration of CN-Cbl ([2]; challenge 125 mg/ml, PG 20% v/v): 23100 µg/mL
